From PubChem BioAssay AID1259407 (Chemical Carcinogenesis Research Information System (CCRIS), 2018) come the findings set out here.

Activity calls are given as the source filed them. The rule behind the calls is not given here.

The test system of this data set is CCRIS mutagenicity, Ames/micronucleus/aberration tests. The data set is described as follows: CCRIS mutagenicity studies.
[1] abbreviates: Test System: AMES SALMONELLA TYPHIMURIUM, Strain/Indicator: TA98, Metabolic Activation: HAMSTER, LIVER, S-9, AROCLOR 1254 (10%), Method: PREINCUBATION
[2] abbreviates: Test System: AMES SALMONELLA TYPHIMURIUM, Strain/Indicator: TA98, Metabolic Activation: NONE, Method: PREINCUBATION
Setting [3] is: Test System: AMES SALMONELLA TYPHIMURIUM, Strain/Indicator: TA98, Metabolic Activation: RAT, LIVER, S-9, AROCLOR 1254 (10%), Method: PREINCUBATION
Where [4] appears, read: Test System: AMES SALMONELLA TYPHIMURIUM, Strain/Indicator: TA100, Metabolic Activation: HAMSTER, LIVER, S-9, AROCLOR 1254 (10%), Method: PREINCUBATION
The mark [5] stands for this setting: Test System: AMES SALMONELLA TYPHIMURIUM, Strain/Indicator: TA100, Metabolic Activation: NONE, Method: PREINCUBATION
[6] abbreviates: Test System: AMES SALMONELLA TYPHIMURIUM, Strain/Indicator: TA100, Metabolic Activation: RAT, LIVER, S-9, AROCLOR 1254 (10%), Method: PREINCUBATION
Setting [7] is: Test System: AMES SALMONELLA TYPHIMURIUM, Strain/Indicator: TA1535, Metabolic Activation: HAMSTER, LIVER, S-9, AROCLOR 1254 (10%), Method: PREINCUBATION
[8] abbreviates: Test System: AMES SALMONELLA TYPHIMURIUM, Strain/Indicator: TA1535, Metabolic Activation: NONE, Method: PREINCUBATION
Setting [9] is: Test System: AMES SALMONELLA TYPHIMURIUM, Strain/Indicator: TA1535, Metabolic Activation: RAT, LIVER, S-9, AROCLOR 1254 (10%), Method: PREINCUBATION

In the case of `CC(C)(C)N`, the mutagenic call was “inactive; negative” under setting [1]; “inactive; negative” under setting [2]; “inactive; negative” (Test System: AMES SALMONELLA TYPHIMURIUM, Strain/Indicator: TA98, Metabolic Activation: RAT LIVER S-9, PHENOBARBITAL AND BETA-NAPHTHOFLAVONE, Method: PREINCUBATION); “inactive; negative” under setting [3]; “inactive; negative” under setting [4]; “inactive; negative” under setting [5]. Also, the mutagenic call reads like this: (Test System: AMES SALMONELLA TYPHIMURIUM, Strain/Indicator: TA100, Metabolic Activation: RAT LIVER S-9, PHENOBARBITAL AND BETA-NAPHTHOFLAVONE, Method: PREINCUBATION) “inactive; negative”; under setting [6], “inactive; negative”; under setting [7], “inactive; negative”; under setting [8], “inactive; negative”; (Test System: AMES SALMONELLA TYPHIMURIUM, Strain/Indicator: TA1535, Metabolic Activation: RAT LIVER S-9, PHENOBARBITAL AND BETA-NAPHTHOFLAVONE, Method: PREINCUBATION) “inactive; negative”; under setting [9], “inactive; negative”. Further, the mutagenic call (Test System: AMES SALMONELLA TYPHIMURIUM, Strain/Indicator: TA1537, Metabolic Activation: HAMSTER, LIVER, S-9, AROCLOR 1254 (10%), Method: PREINCUBATION) is “inactive; negative”; the mutagenic call (Test System: AMES SALMONELLA TYPHIMURIUM, Strain/Indicator: TA1537, Metabolic Activation: NONE, Method: PREINCUBATION) was “inactive; negative”; the mutagenic call (Test System: AMES SALMONELLA TYPHIMURIUM, Strain/Indicator: TA1537, Metabolic Activation: RAT LIVER S-9, PHENOBARBITAL AND BETA-NAPHTHOFLAVONE, Method: PREINCUBATION) was “inactive; negative”; the mutagenic call (Test System: AMES SALMONELLA TYPHIMURIUM, Strain/Indicator: TA1537, Metabolic Activation: RAT, LIVER, S-9, AROCLOR 1254 (10%), Method: PREINCUBATION) is “inactive; negative”; the mutagenic call (Test System: E.COLI, Strain/Indicator: WP2UVRA/PKM101, Metabolic Activation: NONE, Method: PREINCUBATION) is “inactive; negative”; the mutagenic call (Test System: E.COLI, Strain/Indicator: WP2UVRA/PKM101, Metabolic Activation: RAT LIVER S-9, PHENOBARBITAL AND BETA-NAPHTHOFLAVONE, Method: PREINCUBATION) was “inactive; negative”.

As to `CCNc1cccc(O)c1`, the mutagenic call was “inactive; negative” (Test System: AMES SALMONELLA TYPHIMURIUM, Strain/Indicator: TA97, Metabolic Activation: HAMSTER, LIVER, S-9, AROCLOR 1254 (10%), Method: PREINCUBATION); “inactive; negative” (Test System: AMES SALMONELLA TYPHIMURIUM, Strain/Indicator: TA97, Metabolic Activation: NONE, Method: PREINCUBATION); “inactive; negative” (Test System: AMES SALMONELLA TYPHIMURIUM, Strain/Indicator: TA97, Metabolic Activation: RAT, LIVER, S-9, AROCLOR 1254 (10%), Method: PREINCUBATION); “active; positive” under setting [1]; “inactive; negative” under setting [2]; “active; positive” under setting [3]. For the same molecule, the mutagenic call is “inactive; negative” under setting [4]; “inactive; negative” under setting [5]; “inactive; negative” under setting [6]; “inactive; negative” under setting [7]; “inactive; negative” under setting [8]; “inactive; negative” under setting [9].

`O=[N+]([O-])c1cc2[nH]c3cc([N+](=O)[O-])c4ccccc4c3c2c2ccccc12`: the mutagenic call reads like this: (Test System: AMES SALMONELLA TYPHIMURIUM, Strain/Indicator: TA98, Metabolic Activation: NONE, Method: STANDARD PLATE) “active; positive”; (Test System: AMES SALMONELLA TYPHIMURIUM, Strain/Indicator: TA98, Metabolic Activation: RAT, LIVER, S-9, 3-METHYLCHOLANTHRENE, Method: STANDARD PLATE) “active; positive”; (Test System: AMES SALMONELLA TYPHIMURIUM, Strain/Indicator: TA100, Metabolic Activation: NONE, Method: STANDARD PLATE) “active; positive”; (Test System: AMES SALMONELLA TYPHIMURIUM, Strain/Indicator: TA100, Metabolic Activation: RAT, LIVER, S-9, 3-METHYLCHOLANTHRENE, Method: STANDARD PLATE) “active; positive”.
